Data on eleven molecules can be found in ChEMBL document CHEMBL1137026, “Design and synthesis of novel Cdc25A-inhibitors having phosphate group as a hydrophilic residue” (Bioorg Med Chem Lett, 2004).

In general, IC50 refers to the concentration at which inhibition is half-maximal.

Assay [1] has as its target T1, M-phase inducer phosphatase 1 (Homo sapiens, UniProt P30304).
T1 sequence (P30304 whole entry): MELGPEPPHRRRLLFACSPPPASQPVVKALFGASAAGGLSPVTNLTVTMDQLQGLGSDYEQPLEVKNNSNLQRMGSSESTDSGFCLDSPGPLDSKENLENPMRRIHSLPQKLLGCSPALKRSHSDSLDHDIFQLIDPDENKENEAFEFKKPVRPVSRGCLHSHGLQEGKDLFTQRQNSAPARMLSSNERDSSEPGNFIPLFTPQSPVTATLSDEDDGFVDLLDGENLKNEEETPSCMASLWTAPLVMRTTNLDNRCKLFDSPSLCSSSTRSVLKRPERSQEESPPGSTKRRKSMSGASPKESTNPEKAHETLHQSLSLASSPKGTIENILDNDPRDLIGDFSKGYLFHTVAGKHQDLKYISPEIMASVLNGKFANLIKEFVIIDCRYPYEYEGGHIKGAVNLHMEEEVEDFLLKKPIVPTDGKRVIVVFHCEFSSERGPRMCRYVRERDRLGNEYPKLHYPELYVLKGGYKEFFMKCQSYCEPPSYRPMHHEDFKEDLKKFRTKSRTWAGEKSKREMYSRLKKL
In words: Inhibitory concentration against dual-specificity phosphatase Cell division cycle (Cdc) 25A.

Assay [2] concerns the target T2, M-phase inducer phosphatase 2 (Homo sapiens, UniProt P30305).
T2 sequence (P30305 whole entry): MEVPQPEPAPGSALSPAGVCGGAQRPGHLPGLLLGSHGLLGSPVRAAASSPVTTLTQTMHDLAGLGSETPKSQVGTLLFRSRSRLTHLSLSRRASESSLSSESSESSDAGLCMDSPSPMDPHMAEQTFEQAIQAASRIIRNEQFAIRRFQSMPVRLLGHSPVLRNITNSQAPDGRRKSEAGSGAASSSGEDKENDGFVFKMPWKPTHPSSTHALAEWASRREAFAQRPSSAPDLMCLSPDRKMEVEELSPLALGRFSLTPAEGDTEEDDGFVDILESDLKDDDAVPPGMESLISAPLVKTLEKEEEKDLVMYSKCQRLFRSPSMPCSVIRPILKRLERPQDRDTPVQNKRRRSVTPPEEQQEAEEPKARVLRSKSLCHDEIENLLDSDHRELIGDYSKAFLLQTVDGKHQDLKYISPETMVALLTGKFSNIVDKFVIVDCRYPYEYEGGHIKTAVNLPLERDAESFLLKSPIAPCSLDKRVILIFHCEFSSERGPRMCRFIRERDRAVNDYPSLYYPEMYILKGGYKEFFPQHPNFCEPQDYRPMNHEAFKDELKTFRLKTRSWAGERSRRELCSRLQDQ
In words: Inhibitory concentration against dual-specificity phosphatase Cell division cycle (Cdc) 25B.

In the case of `CC(C)CCC[C@@H](C)[C@H]1CCC2[C@@](C)(CO)CCC[C@@]21C` (some centres not stated), the IC50 in assay [1] was 22.7 µM; in assay [2], 4.5 µM.
Consider `CC(C)CCC[C@@H](C)[C@H]1CCC2[C@@](C)(CCOP(=O)(O)O)CCC[C@@]21C` (some centres not stated), for which the half-inhibitory concentration (IC50) was 24.5 µM in assay [1] and 6.8 µM in assay [2].
On the same counts, the results for `CC(C)CCC[C@@H](C)[C@H]1CCC2[C@@](C)(CCO)CCC[C@@]21C` (some centres not stated) are 6.9 µM and 1.3 µM.
Taken in the same sequence, the figures for `CC(C)CCC[C@@H](C)[C@H]1CCC2[C@@H](O)CCC[C@@]21C` (some centres not stated) were 3.9 µM and 5.8 µM.
Regarding `CC(C)CCC[C@@H](C)[C@H]1CCC2[C@](C)(CCO)CCC[C@@]21C` (some centres not stated), the IC50 in assay [1] came to 5.5 µM; in assay [2], 1.7 µM.
On the same counts, the results for `CC(C)CCC[C@@H](C)[C@H]1CCC2[C@](C)(CCOP(=O)(O)O)CCC[C@@]21C` (some centres not stated) are 5.5 µM and 1.2 µM.
Consider `CC(C)CCC[C@@H](C)[C@H]1CCC2[C@@](C)(COP(=O)(O)O)CCC[C@@]21C` (some centres not stated), for which the values for the IC50 in assay [1] and in assay [2] were 0.7 µM and 3.7 µM, respectively.
As for `CC(C)CCC[C@@H](C)[C@H]1CCC2[C@](C)(CO)CCC[C@@]21C` (some centres not stated), the IC50 in assay [1] worked out at 8.5 µM; in assay [2], 3.3 µM.
Taken in the same sequence, the figures for `CC(C)CCC[C@@H](C)[C@H]1CCC2/C(=C/C(=O)O)CCC[C@@]21C` (some centres not stated) were 17.2 µM and 5.9 µM.
Taken in the same sequence, the figures for `CC(C)CCC[C@@H](C)[C@H]1CCC2[C@@H](OP(=O)(O)O)CCC[C@@]21C` (some centres not stated) were 8.2 µM and 5 µM.
On the same counts, the results for `CC(C)CCC[C@@H](C)[C@H]1CCC2C(C)(COP(=O)(O)O)CCC[C@@]21C` (single isomer, unassigned) are 0.9 µM and 3 µM.
